pIC50: −log10 of the molar value. Structures can show the parent of a compound that is named as a salt.

T1 sequence (P07949 29-1114): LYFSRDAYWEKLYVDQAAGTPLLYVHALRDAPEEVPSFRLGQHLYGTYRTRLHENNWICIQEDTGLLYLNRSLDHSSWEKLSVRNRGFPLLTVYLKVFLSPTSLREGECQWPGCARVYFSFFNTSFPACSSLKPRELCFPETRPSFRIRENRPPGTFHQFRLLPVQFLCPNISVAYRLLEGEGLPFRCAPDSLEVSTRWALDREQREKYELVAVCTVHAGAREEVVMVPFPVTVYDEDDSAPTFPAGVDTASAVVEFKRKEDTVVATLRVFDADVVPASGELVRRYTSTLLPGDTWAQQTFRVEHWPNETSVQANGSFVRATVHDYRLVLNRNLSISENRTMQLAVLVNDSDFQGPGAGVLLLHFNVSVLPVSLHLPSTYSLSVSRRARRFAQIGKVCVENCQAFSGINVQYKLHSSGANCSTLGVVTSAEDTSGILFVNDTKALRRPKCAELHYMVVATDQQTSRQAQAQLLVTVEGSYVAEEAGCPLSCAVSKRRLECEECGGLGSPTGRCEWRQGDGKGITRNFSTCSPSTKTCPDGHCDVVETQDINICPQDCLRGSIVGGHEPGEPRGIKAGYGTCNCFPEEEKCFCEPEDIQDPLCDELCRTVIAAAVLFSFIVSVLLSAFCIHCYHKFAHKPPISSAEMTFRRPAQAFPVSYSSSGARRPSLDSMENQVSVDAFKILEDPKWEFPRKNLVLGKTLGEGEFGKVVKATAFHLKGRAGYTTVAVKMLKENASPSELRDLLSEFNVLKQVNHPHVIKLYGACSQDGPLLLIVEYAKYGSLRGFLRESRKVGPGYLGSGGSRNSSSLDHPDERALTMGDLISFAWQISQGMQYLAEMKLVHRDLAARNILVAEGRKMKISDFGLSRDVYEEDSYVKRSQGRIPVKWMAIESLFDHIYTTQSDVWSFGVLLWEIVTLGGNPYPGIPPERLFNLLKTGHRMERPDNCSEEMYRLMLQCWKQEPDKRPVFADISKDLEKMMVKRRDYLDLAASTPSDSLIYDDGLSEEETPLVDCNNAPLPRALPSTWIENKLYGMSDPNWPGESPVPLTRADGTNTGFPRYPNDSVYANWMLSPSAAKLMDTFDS

The test addresses T1, RET (Homo sapiens, UniProt P07949).
T1 construct: purchased Upstate 14-570MG
Put plainly: Inhibition of RET kinase activity, recombinant RET method (Kinase-Glo). Format: biochemical. To be noted: RET 2 μg/ml, poly-EY4 substrate, 20 μM ATP, two hours at 30° C. The gist of the method: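 Recombinant RET at 2 μg/ml in 20 mM MOPS/NaOH pH 7.0, 1 mM EDTA, 5% glycerol, 0.01% Brij35, 0.1% 2-mercaptoethanol, 1 mg/ml BSA; compounds 10 nM–30 μM final.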
As to `C#CCN(C[C@@H]1CCCN1C)S(=O)(=O)c1ccc2[nH]c(=O)c3[nH]cc(C(=O)OCCC)c3c2c1` [Compound 151, (S)-8-[(1-Methyl-pyrrolidin-2-ylmethyl)-prop-2-ynyl-sulfamoyl]-4-oxo-4,5-dihydro-3H-pyrrolo[2,3-c]quinoline-1-propyl carboxylate], the pIC50 was 6.00 to 7.00.

As to `CCCOC(=O)c1c[nH]c2c(=O)[nH]c3ccc(S(=O)(=O)N(C[C@H](C)NC(=O)OC(C)(C)C)C4CC4)cc3c12` [Compound 152, (S)-8-[(2-tert-Butoxycarbonylamino-propyl)-cyclopropyl-sulfamoyl]-4-oxo-4,5-dihydro-3H-pyrrolo[2,3-c]quinoline 1-propyl carboxylate], the negative-log IC50 (pIC50) was 6.00 to 7.00.

Regarding `CCCOC(=O)c1c[nH]c2c(=O)[nH]c3ccc(S(=O)(=O)N(C[C@@H](C)NC(=O)OC(C)(C)C)C4CC4)cc3c12` [Compound 154, (R)-8-[(2-tert-Butoxycarbonylamino-propyl)-cyclopropyl-sulfamoyl]-4-oxo-4,5-dihydro-3H-pyrrolo[2,3-c]quinoline-1-propyl carboxylate], the negative-log IC50 (pIC50) was 5.00 to 6.00.

Consider `C#CCN(CCNC)S(=O)(=O)c1ccc2[nH]c(=O)c3[nH]cc(C(=O)OCCC)c3c2c1` [Compound 156, 8-[(2-Methylamino-ethyl)-prop-2-ynyl-sulfamoyl]-4-oxo-4,5-dihydro-3H-pyrrolo[2,3-c]quinoline-1-propyl carboxylate hydrochloride], for which the pIC50 was over 7.00.

`C#CCN(CCN(C)C(=O)OC(C)(C)C)S(=O)(=O)c1ccc2[nH]c(=O)c3[nH]cc(C(=O)OCCC)c3c2c1` [Compound 157, 8-{[2-(tert-Butoxycarbonyl-methyl-amino)-ethyl]-prop-2-ynyl-sulfamoyl}-4-oxo-4,5-dihydro-3H-pyrrolo[2,3-c]quinoline-1-propyl carboxylate]: the negative-log IC50 (pIC50) was over 7.00.

In the case of `C#CCN(CCNC(C)C)S(=O)(=O)c1ccc2[nH]c(=O)c3[nH]cc(C(=O)OCCC)c3c2c1` [Compound 158, 8-[(2-isopropylamino-ethyl)-prop-2-ynyl-sulfamoyl]-4-oxo-4,5-dihydro-3H-pyrrolo[2,3-c]quinoline-1-propyl carboxylate hydrochloride], the negative logarithm of the IC50 (pIC50) is 6.00 to 7.00.

Take `C#CCN(CCN(C(=O)OC(C)(C)C)C(C)C)S(=O)(=O)c1ccc2[nH]c(=O)c3[nH]cc(C(=O)OCCC)c3c2c1` [Compound 159, 8-{[2-(tert-Butoxycarbonyl-isopropyl-amino)-ethyl]-prop-2-ynyl-sulfamoyl}-4-oxo-4,5-dihydro-3H-pyrrolo[2,3-c]quinoline-1-propyl carboxylate]: the pIC50 is 5.00 to 6.00.

For the molecule `CCCOC(=O)c1c[nH]c2c(=O)[nH]c3ccc(S(=O)(=O)N(CC)[C@H]4CCNC4)cc3c12` [Compound 160, (S)-8-(Ethyl-pyrrolidin-3-yl-sulfamoyl)-4-oxo-4,5-dihydro-3H-pyrrolo[2,3-c]quinoline-1-propyl carboxylate hydrochloride], the pIC50 was over 7.00.

`CCCOC(=O)c1c[nH]c2c(=O)[nH]c3ccc(S(=O)(=O)N(CC)[C@H]4CCN(C)C4)cc3c12` [Compound 161, (S)-8-[Ethyl-(1-methyl-pyrrolidin-3-yl)-sulfamoyl]-4-oxo-4,5-dihydro-3H-pyrrolo[2,3-c]quinoline-1-propyl carboxylate]: the pIC50 was over 7.00.

For the molecule `CCOC(=O)c1c[nH]c2c(=O)[nH]c3ccc(S(=O)(=O)N4CCC[C@H]4CN4CCCC4)cc3c12` [Compound 163, (S)-4-Oxo-8-(2-pyrrolidin-1-ylmethyl-pyrrolidine-1-sulfonyl)-4,5-dihydro-3H-pyrrolo[2,3-c]quinoline-1-ethyl carboxylate], the pIC50 was 6.00 to 7.00.

`CCCOC(=O)c1c[nH]c2c(=O)[nH]c3ccc(S(=O)(=O)N4CC[C@H](NC(=O)OC(C)(C)C)C4)cc3c12` [Compound 164, (S)-8-(3-tert-Butoxycarbonylamino-pyrrolidine-1-sulfonyl)-4-oxo-4,5-dihydro-3H-pyrrolo[2,3-c]quinoline-1-propyl carboxylate]: the pIC50 was 5.00 to 6.00.

With `CC(C)(C)OC(=O)N[C@H]1CCN(S(=O)(=O)c2ccc3[nH]c(=O)c4[nH]cc(C(=O)O)c4c3c2)C1` [Compound 165, (S)-8-(3-tert-Butoxycarbonylamino-pyrrolidine-1-sulfonyl)-4-oxo-4,5-dihydro-3H-pyrrolo[2,3-c]quinoline-1-carboxylic acid], the pIC50 was 4.00 to 5.00.

On to `CCCOC(=O)c1c[nH]c2c(=O)[nH]c3ccc(S(=O)(=O)N4CCC(NC)C4)cc3c12` (stereo not drawn) [Compound 168, 8-(3-Methylamino-pyrrolidine-1-sulfonyl)-4-oxo-4,5-dihydro-3H-pyrrolo[2,3-c]quinoline-1-propyl carboxylate hydrochloride], for which the negative-log IC50 (pIC50) was 6.00 to 7.00.

With `CCCOC(=O)c1c[nH]c2c(=O)[nH]c3ccc(S(=O)(=O)N4CCC(N(C)C(=O)OC(C)(C)C)C4)cc3c12` (stereo not drawn) [Compound 169, 8-[3-(tert-Butoxycarbonyl-methyl-amino)-pyrrolidine-1-sulfonyl]-4-oxo-4,5-dihydro-3H-pyrrolo[2,3-c]quinoline-1-propyl carboxylate], the pIC50 is 5.00 to 6.00.

`CN(C(=O)OC(C)(C)C)C1CCN(S(=O)(=O)c2ccc3[nH]c(=O)c4[nH]cc(C(=O)O)c4c3c2)C1` (stereo not drawn) [Compound 170, 8-[3-(tert-Butoxycarbonyl-methyl-amino)-pyrrolidine-1-sulfonyl]-4-oxo-4,5-dihydro-3H-pyrrolo[2,3-c]quinoline-1-carboxylic acid]: the pIC50 was 4.00 to 5.00.

Regarding `CCCOC(=O)c1c[nH]c2c(=O)[nH]c3ccc(S(=O)(=O)N4CC[C@H](N(C)C)C4)cc3c12` [Compound 171], the pIC50 is 6.00 to 7.00.

With `CCCOC(=O)c1c[nH]c2c(=O)[nH]c3ccc(S(=O)(=O)N4CC[C@@H](N(C)C)C4)cc3c12` [Compound 172], the negative-log IC50 (pIC50) is 5.00 to 6.00.

On to `CCCOC(=O)c1c[nH]c2c(=O)[nH]c3ccc(S(=O)(=O)N(CCO)C(C)C)cc3c12` [Compound 173, 8-[(2-Hydroxy-ethyl)isopropyl-sulfamoyl]-4-oxo-4,5-dihydro-3H-pyrrolo[2,3-c]quinoline-1-propyl carboxylate], for which the pIC50 is over 7.00.

Take `CCCOC(=O)c1c[nH]c2c(=O)[nH]c3ccc(S(=O)(=O)N(CCO)C4CC4)cc3c12` [Compound 174, 8-[Cyclopropyl-(2-hydroxy-ethyl)-sulfamoyl]-4-oxo-4,5-dihydro-3H-pyrrolo[2,3-c]quinoline-1-propyl carboxylate]: the pIC50 was over 7.00.

`C#CCN(CCO)S(=O)(=O)c1ccc2[nH]c(=O)c3[nH]cc(C(=O)OCCC)c3c2c1` [Compound 175, 8-[(2-Hydroxy-ethyl)-prop-2-ynyl-sulfamoyl]-4-oxo-4,5-dihydro-3H-pyrrolo[2,3-c]quinoline-1-propyl carboxylate]: the pIC50 is 6.00 to 7.00.

Consider `CCCOC(=O)c1c[nH]c2c(=O)[nH]c3ccc(S(=O)(=O)N(CCO)CCO)cc3c12` [Compound 176, 8-[bis-(2-Hydroxy-ethyl)-sulfamoyl]-4-oxo-4,5-dihydro-3H-pyrrolo[2,3-c]quinoline-1-propyl carboxylate], for which the pIC50 was 6.00 to 7.00.

For the molecule `CN(CC(N)=O)S(=O)(=O)c1ccc2[nH]c(=O)c3[nH]cc(C(=O)O)c3c2c1` [Compound 178, 8-(Carbamoylmethyl-methyl-sulfamoyl)-4-oxo-4,5-dihydro-3H-pyrrolo[2,3-c]quinoline-1-carboxylic acid], the pIC50 was 5.00 to 6.00.

With `CCCOC(=O)c1c[nH]c2c(=O)[nH]c3ccc(S(=O)(=O)N4CCCC(C(N)=O)C4)cc3c12` (stereo not drawn) [Compound 179, 8-(3-Carbamoyl-piperidine-1-sulfonyl)-4-oxo-4,5-dihydro-3H-pyrrolo[2,3-c]quinoline-1-propyl carboxylate], the pIC50 was 6.00 to 7.00.

As to `NC(=O)C1CCCN(S(=O)(=O)c2ccc3[nH]c(=O)c4[nH]cc(C(=O)O)c4c3c2)C1` (stereo not drawn) [Compound 180, 8-(3-Carbamoyl-piperidine-1-sulfonyl)-4-oxo-4,5-dihydro-3H-pyrrolo[2,3-c]quinoline-1-carboxylic acid], the pIC50 is 4.00 to 5.00.

As for `CCCOC(=O)c1c[nH]c2c(=O)[nH]c3ccc(S(=O)(=O)N(CCOCc4ccccc4)C4CC4)cc3c12` [Compound 181, 8-[(2-Benzyloxy-ethyl)-cyclopropyl-sulfamoyl]-4-oxo-4,5-dihydro-3H-pyrrolo[2,3-c]quinoline-1-propyl carboxylate], the negative-log IC50 (pIC50) is 5.00 to 6.00.

Consider `CCCOC(=O)c1c[nH]c2c(=O)[nH]c3ccc(S(=O)(=O)N(C)CC(=O)O)cc3c12` [Compound 182, 8-(Carboxymethyl-methyl-sulfamoyl)-4-oxo-4,5-dihydro-3H-pyrrolo[2,3-c]quinoline-1-propyl carboxylate], for which the negative-log IC50 (pIC50) is 5.00 to 6.00.

`CCCOC(=O)c1c[nH]c2c(=O)[nH]c3ccc(S(=O)(=O)N(C)CC(=O)OC(C)(C)C)cc3c12` [Compound 183, 8-(tert-Butoxycarbonylmethyl-methyl-sulfamoyl)-4-oxo-4,5-dihydro-3H-pyrrolo[2,3-c]quinoline-1-propyl carboxylate]: the negative logarithm of the IC50 (pIC50) is 5.00 to 6.00.

As to `CCCOC(=O)c1c[nH]c2c(=O)[nH]c3cc(F)c(S(=O)(=O)N(C)CCN(C)C)cc3c12` [Compound 184, 8-[(2-Dimethylamino-ethyl)-methyl-sulfamoyl]-7-fluoro-4-oxo-4,5-dihydro-3H-pyrrolo[2,3-c]quinoline-1-propyl carboxylate], the pIC50 is over 7.00.

Take `CCCOC(=O)c1c[nH]c2c(=O)[nH]c3cc(F)c(S(=O)(=O)N(CCO)C(C)C)cc3c12` [Compound 185, 7-Fluoro-8-[(2-hydroxy-ethyl)-isopropyl-sulfamoyl]-4-oxo-4,5-dihydro-3H-pyrrolo[2,3-c]quinoline-1-propyl carboxylate]: the pIC50 is over 7.00.

For `CCCOC(=O)c1c[nH]c2c(=O)[nH]c3cc(F)c(S(=O)(=O)N(C)C)cc3c12` [Compound 186, 8-Dimethylsulfamoyl-7-fluoro-4-oxo-4,5-dihydro-3H-pyrrolo[2,3-c]quinoline-1-propyl carboxylate], the pIC50 is 6.00 to 7.00.
